Source: ChEMBL document CHEMBL1201862, “PubChem BioAssay data set” (2004)
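Results reflect a 48-hour exposure of cells in 96-well plates to compound at five concentrations. Abbreviation: GI50, concentration required for 50% inhibition of growth.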 The source made the active and inactive calls. No stated cut-off is given here; in the data, active = GI50 up to about 1.1 µM and inactive = higher.

Columns and labels:
Assay in all cases: inhibition of tumour cell growth, NCI panel, 48 h
HT-29 = tested on: HT-29
EKVX = tested on: EKVX
SK-MEL-2 = tested on: SK-MEL-2
MOLT-4 = tested on: MOLT-4
NCI-H226 = tested on: NCI-H226
HCC 2998 = tested on: HCC 2998
A549 = tested on: A549
UACC-257 = tested on: UACC-257
OVCAR-5 = tested on: OVCAR-5
OVCAR-3 = tested on: OVCAR-3
CCRF-CEM = tested on: CCRF-CEM
RXF 393 = tested on: RXF 393
K562 = tested on: K562
NCI-H23 = tested on: NCI-H23

SMILES | GI50 (HT-29) | GI50 (EKVX) | GI50 (SK-MEL-2) | GI50 (MOLT-4) | GI50 (NCI-H226) | GI50 (HCC 2998) | GI50 (A549) | GI50 (UACC-257) | GI50 (OVCAR-5) | GI50 (OVCAR-3) | GI50 (CCRF-CEM) | GI50 (RXF 393) | GI50 (K562) | GI50 (NCI-H23)
CC[n+]1c(/C=C/c2cc(C(=O)OC)n3c2sc2ccccc23)sc2ccccc21 | 16.6 µM (inactive) | 20.7 µM (inactive) | 18.7 µM (inactive) | 11.4 µM (inactive) | 23 µM (inactive) | 14.6 µM (inactive) | 18.8 µM (inactive) | 17.3 µM (inactive) | 20.8 µM (inactive) | 20.3 µM (inactive) | 0.214 µM (active) | – | – | –
O=c1ccccc2cccc(O)c12 | > 100 µM (inactive) | 94.2 µM (inactive) | – | > 100 µM (inactive) | – | > 100 µM (inactive) | > 100 µM (inactive) | > 100 µM (inactive) | – | > 100 µM (inactive) | > 100 µM (inactive) | > 100 µM (inactive) | > 100 µM (inactive) | > 100 µM (inactive)
C=CC1=C(C)/C(=C/C2=NC(=C\c3[nH]c(CC4NC(=O)C(C)/C4=C\C)c(C)c3CCC(=O)O)/C(CC(=O)O)=C2C)NC1=O (stereo not given) | > 100 µM (inactive) | > 100 µM (inactive) | > 100 µM (inactive) | > 100 µM (inactive) | > 100 µM (inactive) | > 100 µM (inactive) | > 100 µM (inactive) | > 100 µM (inactive) | > 100 µM (inactive) | > 100 µM (inactive) | > 100 µM (inactive) | > 100 µM (inactive) | > 100 µM (inactive) | > 100 µM (inactive)
COc1cc(C2C(Cl)C(=O)N2NC(=O)c2ccc(N)cc2)ccc1O (stereo not given) | 23.4 µM (inactive) | 92 µM (inactive) | 59.8 µM (inactive) | 23.5 µM (inactive) | 95.7 µM (inactive) | 20.2 µM (inactive) | > 100 µM (inactive) | > 100 µM (inactive) | 56.6 µM (inactive) | 16.6 µM (inactive) | 18.5 µM (inactive) | – | 31.3 µM (inactive) | 20.9 µM (inactive)
Cc1ccc(NC(=O)/C(=N/NC(=O)C[N+](C)(C)C)c2nc3ccccc3nc2O)cc1 | 91.4 µM (inactive) | > 100 µM (inactive) | > 100 µM (inactive) | > 100 µM (inactive) | > 100 µM (inactive) | > 100 µM (inactive) | > 100 µM (inactive) | > 100 µM (inactive) | > 100 µM (inactive) | > 100 µM (inactive) | – | > 100 µM (inactive) | – | > 100 µM (inactive)
COC(=O)[C@]12CSCN1C(=O)C(C(C)=O)=NN2C(=O)[C@](OC)(c1ccccc1)C(F)(F)F | > 100 µM (inactive) | > 100 µM (inactive) | > 100 µM (inactive) | > 100 µM (inactive) | 88.9 µM (inactive) | – | > 100 µM (inactive) | – | > 100 µM (inactive) | > 100 µM (inactive) | > 10 µM (inactive) | 90.6 µM (inactive) | > 100 µM (inactive) | > 100 µM (inactive)
CN1C(c2ccccc2)CC(O)CC1c1ccccc1 (stereo not given) | > 100 µM (inactive) | > 100 µM (inactive) | > 100 µM (inactive) | > 100 µM (inactive) | > 100 µM (inactive) | – | > 100 µM (inactive) | > 100 µM (inactive) | > 100 µM (inactive) | > 100 µM (inactive) | > 100 µM (inactive) | > 100 µM (inactive) | > 100 µM (inactive) | > 100 µM (inactive)
Cc1cc2c(c(C(N)=O)c1C)-c1cccc(Cl)c1C2=O | > 100 µM (inactive) | > 100 µM (inactive) | > 100 µM (inactive) | 57.9 µM (inactive) | – | > 100 µM (inactive) | > 100 µM (inactive) | > 100 µM (inactive) | > 100 µM (inactive) | > 100 µM (inactive) | > 100 µM (inactive) | – | > 100 µM (inactive) | > 100 µM (inactive)
N#Cc1cc([N+](=O)[O-])ccc1NC(=O)/C(=N/N)C(C(=O)c1ccc(Cl)c(Cl)c1)C1OC(=O)c2ccccc21 (stereo not given) | 81.3 µM (inactive) | 45 µM (inactive) | 72.3 µM (inactive) | 36.8 µM (inactive) | 16.3 µM (inactive) | 65.9 µM (inactive) | 23.7 µM (inactive) | 84.7 µM (inactive) | 47.2 µM (inactive) | 90.8 µM (inactive) | 38.9 µM (inactive) | 19.5 µM (inactive) | 24.3 µM (inactive) | 25.1 µM (inactive)
O=C(Nc1ccc(Cl)cc1)/C(Cc1cccc[n+]1[O-])=N\Nc1ccc([N+](=O)[O-])cc1[N+](=O)[O-] | – | > 100 µM (inactive) | > 100 µM (inactive) | > 100 µM (inactive) | – | > 100 µM (inactive) | > 100 µM (inactive) | > 100 µM (inactive) | > 100 µM (inactive) | > 100 µM (inactive) | > 100 µM (inactive) | > 100 µM (inactive) | > 100 µM (inactive) | > 100 µM (inactive)
COc1ccc(OCC(=O)O)c2c1CCC(C)C2=O (stereo not given) | > 100 µM (inactive) | > 100 µM (inactive) | > 100 µM (inactive) | > 100 µM (inactive) | – | > 100 µM (inactive) | > 100 µM (inactive) | > 100 µM (inactive) | > 100 µM (inactive) | > 100 µM (inactive) | > 100 µM (inactive) | – | > 100 µM (inactive) | –
CC(=O)OC(C)(C)C1CCC(C)(C(O)COc2ccc(CCNC(=O)c3ccccc3)cc2)O1 (stereo not given) | > 100 µM (inactive) | – | > 100 µM (inactive) | 14.8 µM (inactive) | – | – | 51.1 µM (inactive) | > 100 µM (inactive) | > 100 µM (inactive) | 27.6 µM (inactive) | 21.6 µM (inactive) | 6.68 µM (inactive) | – | > 100 µM (inactive)
CN(C)c1ccc(/C=N/C23CC4CC(CC(C4)C2)C3)cc1 | > 100 µM (inactive) | > 100 µM (inactive) | > 100 µM (inactive) | > 100 µM (inactive) | > 100 µM (inactive) | > 100 µM (inactive) | > 100 µM (inactive) | > 100 µM (inactive) | > 100 µM (inactive) | > 100 µM (inactive) | > 100 µM (inactive) | > 100 µM (inactive) | > 100 µM (inactive) | > 100 µM (inactive)
Cc1ccc(NC(=O)CC2C(=O)Nc3ccccc3S2(=O)=O)cc1C (stereo not given) | > 100 µM (inactive) | > 100 µM (inactive) | > 100 µM (inactive) | > 100 µM (inactive) | > 100 µM (inactive) | > 100 µM (inactive) | > 100 µM (inactive) | > 100 µM (inactive) | > 100 µM (inactive) | > 100 µM (inactive) | > 100 µM (inactive) | > 100 µM (inactive) | > 100 µM (inactive) | > 100 µM (inactive)
Cc1c(-c2nnc(-c3ccccc3)o2)c(=O)n(-c2ccccc2)n1C | > 100 µM (inactive) | > 100 µM (inactive) | > 100 µM (inactive) | > 100 µM (inactive) | > 100 µM (inactive) | > 100 µM (inactive) | > 100 µM (inactive) | > 100 µM (inactive) | – | > 100 µM (inactive) | > 100 µM (inactive) | > 100 µM (inactive) | > 100 µM (inactive) | > 100 µM (inactive)
CC(=O)OCC1OC(Sc2ccccn2)C=CC1OC(C)=O (stereo not given) | > 100 µM (inactive) | > 100 µM (inactive) | – | > 100 µM (inactive) | > 100 µM (inactive) | > 100 µM (inactive) | > 100 µM (inactive) | > 100 µM (inactive) | > 100 µM (inactive) | > 100 µM (inactive) | > 100 µM (inactive) | > 100 µM (inactive) | > 100 µM (inactive) | > 100 µM (inactive)
Brc1ccc(N2C[N+](c3ccc(Br)cc3)=NC(c3ccccc3)=N2)cc1.[O-][Cl+3]([O-])([O-])[O-] | 36.7 µM (inactive) | 33.9 µM (inactive) | 46.6 µM (inactive) | 43 µM (inactive) | > 100 µM (inactive) | > 100 µM (inactive) | 75.9 µM (inactive) | > 100 µM (inactive) | > 100 µM (inactive) | – | – | > 100 µM (inactive) | 31.3 µM (inactive) | 46.9 µM (inactive)
CN1C2(c3ccccc3)c3c(-c4ccccc4)sc(-c4ccccc4)c3C1(c1ccccc1)C1C(=O)N(c3ccccc3)C(=O)C12 (stereo not given) | > 100 µM (inactive) | > 100 µM (inactive) | – | – | > 100 µM (inactive) | > 100 µM (inactive) | > 100 µM (inactive) | > 100 µM (inactive) | > 100 µM (inactive) | > 100 µM (inactive) | > 100 µM (inactive) | > 100 µM (inactive) | > 100 µM (inactive) | > 100 µM (inactive)
CS(=O)(=O)c1ccc(-c2cc(-c3ccc(S(C)(=O)=O)cc3)[n+](-c3cc(-c4ccccc4)c([O-])c(-c4ccccc4)c3)c(-c3ccc(S(C)(=O)=O)cc3)c2)cc1 | > 100 µM (inactive) | > 100 µM (inactive) | > 100 µM (inactive) | > 100 µM (inactive) | > 100 µM (inactive) | > 100 µM (inactive) | > 100 µM (inactive) | 38.5 µM (inactive) | > 100 µM (inactive) | > 100 µM (inactive) | – | > 100 µM (inactive) | > 100 µM (inactive) | > 100 µM (inactive)
Cc1cc(N)c(C)c2c1[nH]c1ccc(O)cc12 | > 100 µM (inactive) | > 100 µM (inactive) | > 100 µM (inactive) | 32.4 µM (inactive) | > 100 µM (inactive) | > 100 µM (inactive) | > 100 µM (inactive) | > 100 µM (inactive) | > 100 µM (inactive) | 50.6 µM (inactive) | 20.7 µM (inactive) | – | 35 µM (inactive) | > 100 µM (inactive)
CN(C)/C=N\c1cc[nH]c(=O)n1 | > 100 µM (inactive) | > 100 µM (inactive) | > 100 µM (inactive) | – | > 100 µM (inactive) | – | > 100 µM (inactive) | > 100 µM (inactive) | > 100 µM (inactive) | > 100 µM (inactive) | > 100 µM (inactive) | > 100 µM (inactive) | > 100 µM (inactive) | –
